From US20060223819A1, “Quinoline Derivatives as NK-3 Antagonists” (GlaxoSmithKline S.P.A. & Laboratoire, priority 2000, published 2006)

Point of comparison: `CC(C)[C@H](NC(=O)c1c(CN2CCNC(=O)C2)c(-c2ccccc2)nc2ccccc12)c1ccccc1` [Example 42, 3-(3-Oxo-piperazin-1-ylmethyl)-2-phenyl-quinoline-4-carboxylic acid ((S)-2-methyl-1-phenyl-propyl)-amide], melting point 137 °C. Against it:
- C[C@H](NC(=O)c1c(CN2CCNC(=O)C2)c(-c2ccccc2)nc2c(F)cccc12)C1CCCCC1 [Example 39, 8-Fluoro-3-(3-oxo-piperazin-1-ylmethyl)-2-phenylquinoline-4-carboxylic acid ((S)-1-cyclohexyl-ethyl)-amide] — higher, 165 °C
- COc1cccc([C@H](C)NC(=O)c2c(CN3CCNCC3)c(-c3ccccc3)nc3ccccc23)c1 [Example 3, 2-Phenyl-3-piperazin-1-ylmethyl-quinoline-4-carboxylic acid[(S)-1-(3-methoxy-phenyl)-ethyl]-amide] — higher, 147 to 153 °C
- C[C@H](NC(=O)c1c(CN2CCNCC2)c(-c2ccccc2)nc2ccccc12)c1cccc(O)c1 [Example 4, 2-Phenyl-3-piperazin-1-ylmethyl-quinoline-4-carboxylic acid [(S)-1-(3-hydroxy-phenyl)-ethyl]-amide] — higher, 240 to 244 °C
